This test has as its target T1, A. thaliana PII (H6PII-tp) (Arabidopsis thaliana, UniProt Q9ZST4).
T1 sequence (Q9ZST4 62-196): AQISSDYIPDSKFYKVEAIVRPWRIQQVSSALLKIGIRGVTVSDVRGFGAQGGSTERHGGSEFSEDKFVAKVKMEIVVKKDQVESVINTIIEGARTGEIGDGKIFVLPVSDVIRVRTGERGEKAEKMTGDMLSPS
Put plainly: isothermal titration calorimetry. The class given is binding. (ITC needs no label: the signal is the heat of the interaction.)

What is called Kd is the free concentration of one partner at which half of the binding sites on the other are occupied at equilibrium, for simple one-to-one binding. A lower Kd goes with tighter binding. On to `O=C(O)CCC(=O)C(=O)O` [2OG, 2-oxoglutarate], for which the affinity, expressed as Kd, was 111 ± 3.4 µM.

These data come from PMC3410613 (Frontiers in Plant Science, 2012).
